Patent US7538129B2, “Diazonamide A analog” (Board of Regents, The University of Texas System, priority 2005, dated 2009)

Tests used:
MDA-MB-231 = experiment: growth inhibition (GI50) of tumor cell lines; assay type: cell-based; conditions: MDA-MB-231, FIG. 1
Procedure: A number of tumor cell lines representing breast, lung, colon, ovarian and prostate cancer as well as melanoma were assayed under standard growth conditions in presence of varying amounts of diazonamide A, a hydroxylated form of Compound J, Compound J, paclitaxel and vinblastine. The results are graphed as the concentration that diminishes growth by a factor of two (GI50) in FIG. 1.

[1] = test system: MDA-MB-435 (breast) xenografts; experiment: growth inhibition of MDA-MB-435 xenografts; assay type: in vivo, mice; conditions: 0.7 mg/kg, IP
HCT116 xenografts = experiment: growth inhibition of HCT116 xenografts; assay type: in vivo, mice; conditions: HCT116 (colon), 0.45 mg/kg, IP
Procedure: Details of the preparation of murine models containing xenografts of HCT116 cells or PC-3 cells are described in the section following these examples. After the tumors were grown, therapy utilizing Compound J or paclitaxel was initiated. […] In FIG. 4A, the *'s represent control mice, the squares represent 5 mg/kg Compound J; the diamonds represent 20 mg/kg Compound J; and the slanted line represents 20 mg/kg paclitaxel.
The details of the protocol for Examples 19 and 20 are as follows:
• PC3 prostrate tumor cells and HCT116 colon tumor cells (acquired from the tumor repository Division of Cancer Treatment and Diagnosis (DCTD) of the NCI • Complete RPMI Media • RPMI (Cat# 11875-085, Invitrogen) • 10% Heat-inactivated (30′ 56° C.) Fetal Bovine Serum (Cat# 100-106, Gemini Bio-Products • 2 mM L-glutamine (Cat# 25030-081, Invitrogen) • 0.1 mM MEM Non-Essential Amino Acids Solution (Cat#11140-050, Invitrogen) • 10 U/ml Penicillin/10 μg/ml Streptomycin (Cat#15140-122, Invitrogen) • 1 mM Sodium Pyruvate (Cat#l 1360-070) • Trypsin-EDTA (Cat#25300-054, Invitrogen) • Ca^2+/Mg^2+-free Phosphate Buffered Saline, 5% dextrose in water • Cell Culture Dish 150 mm×25 mm (Cat# 430599, Coming, Inc.) • 10 and 25 ml pipets, standard pipet-aid, p200 and p1000 pipette tips and standard pipetmen • Athymic NCr-nu/nu nude mice at 6-12 weeks of age, either sex (Strain code: 01B74, NCI Frederick Animal Production Program—suppliers include Charles River Labs and Taconic Farms). Female mice of approximately 7 weeks of age were utilized for existing experiments. • Standard 1 cc tuberculin syringe, 30G½ and 25G⅝ needles (Becton Dickinson) • Falcon 5 ml tubes (Cat#352054) • 50 and 15 ml disposable plastic conical tubes (Falcon or similar vendor) • Trypan Blue Solution (0.4%) (Cat#T8154, Sigma) • Hausser phase contrast hemacytometer (Cat# 02-671-54, Fisher) • Ice bucket • Balance for weighing mice (accurate to 0.2 g) • Vernier calipers • Vivarium facility free from known pathogens (nude mice should be housed in isolation from conventional mice if possible—separate rooms or micro-isolator cages equipped with individual air flow; all animal housing, bedding, water should be autoclaved prior to use; standard irradiated mouse chow should be used; animals should be changed out of cages within laminar flow hood; investigators handling mice should be suitably garbed—disposable gown, bonnet, booties, gloves, mask) • AB-5 (Compound J) compound • Ethyl alcohol, 200 proof (Aaper, MFD 041205) • Cremaphor (Cat# C5135, Sigma) • Paclitaxel (Cat#ANP0010, Polymed Therapeutics) Procedure: • 1) Rapidly thaw PC3 or HCT116 cells (if necessary) in 37° C. water bath. Transfer contents to 9ml complete RPMI media. Spin 5′ at 1200 rpm (240 Xg). Discard media and resuspend pellet in 8 ml complete RPMI media. Plate in 100 mm×25 mm cell culture dish in 5% CO2, 37° C. humidified incubator. • 2) Allow to grow for 5-10 days, splitting (aspirate media, wash with 3-5 ml PBS, add 1 ml trypsin-EDTA, incubate 3-5′ at 37° C., add media to desired volume and transfer to multiple plates) 1:8 to 1:10 every 3-4 days as necessary to allow cells to enter phase of logarithmic growth. • 3) When cells are growing well, begin to expand to 150 mm×25 mm dishes. We use 20 ml of media in a 150 mm dish and use 2 ml of trypsin for splitting. When nearly confluent, there should be 2×10^7 cells/150 mm dish. • 4) Plan ahead to time arrival of nu/nu mice such that they can acclimate to animal facility for 1 week prior to injection of tumor cells. […] Plan to inject 10 million cells/mouse and allow for loss of cells/volume during injection process. That is, if 30 mice are to be injected, plan to harvest cells sufficient for at least 35 injections—35×10 million cells=3.5×10^8 cells. In the existing HCT116 experiment, 7.5×10^6 cells were injected per mouse. Five mice per group were utilized for AB-5 treatment and four mice per group were utilized for the control and paclitaxel treatments. […]

Row | SMILES | GI50 (concentration that diminishes growth by a factor of two) (MDA-MB-231) | #Tumor Free (day) [1] | #Tumor Free (day) (HCT116 xenografts) | % Max T/C (HCT116 xenografts) [%] | Log10 Tumor Cell Kill (HCT116 xenografts)
1 | CC(C)[C@H](O)C(=O)N[C@H]1Cc2ccc3c(c2)[C@]24C5=C(N=C(O5)[C@H](C(C)C)NC1=O)c1nc(Cl)c(o1)-c1c(Cl)[nH]c5cccc(c15)-c1cccc2c1N[C@@H]4O3 [diazonamide A] | more effective than the remaining drugs | – | – | – | –
2 | CC[C@]1(O)C[C@@H]2CN(CCc3c([nH]c4ccccc34)[C@@](C(=O)OC)(c3cc4c(cc3OC)N(C)[C@H]3[C@@](O)(C(=O)OC)[C@H](OC(C)=O)[C@]5(CC)C=CCN6CC[C@]43[C@@H]65)C2)C1 [vinblastine, reference compound] | more effective than the remaining drugs | 0/6 | 0/5 | 56.0 | 0.2
